# System: R223X stop codon in the mutated luciferase gene, ADXC8 luciferase reporter cell line
# Experiment: cells
# Format: cell-based
# Conditions: 24 h, ADXC8 cells, 24 hours; for Emax: read-out: Fold Over Control, maximum fold response relative to 200 μM G418; for EC (100% of 200 uM G418 response): read-out: pC100%, negative logarithm of the concentration giving the same response as 200 μM G418
# Description: The read-through activity of compounds was assessed using the ADXC8 luciferase reporter cell line (generated as described in McElroy et al. PLoS Biology (2013), 11, e1001593). […] The amount of luciferase is measured by adding a lysis buffer containing luciferin substrate and detecting luminescence using the following protocol:
# ADXC8 cells in assay media (DMEM+10% FBS) were seeded into 96-well tissue culture treated white plates (Greiner) to a density of 13,000 cells per well and incubated for 24 hours at 37° C. in an atmosphere of 5% CO2. […] Plates were incubated for a further 24 hours at 37° C. in an atmosphere of 5% CO2. Cells treated with 200 μM G418 (with 1% DMSO) were used as a positive control.
# Cell viability and firefly luciferase activity were measured in the same assay wells. CellTiter-Fluor™ reagent was prepared as per manufacturer's instructions (Promega E7120) and 20 μl of 5× CellTiter-Fluor™ reagent was added to all wells, briefly mixed by orbital shaking (300-500 rpm for −30 seconds) and the plates incubated for 30-45 minutes at 37° C. in an atmosphere of 5% C02. Cell viability was measured by monitoring fluorescence on a CLARIOstar® plate reader (BMG Labtech). Cells containing 1% DMSO were used as a positive control and cells with 400 μM Doxorubicin were used as negative control to define 100 and 0% respectively. ONE-Glo™ luciferase assay buffer (Promega E7120) was prepared according to manufacturer's instructions and 100 μl of luciferase reagent was added to each well and the plate incubated at RT for 3 mins before measuring the luminescence on the CLARIOstar® plate reader (BMG Labtech). Cells treated with 200 μM G418 (with 1% DMSO) were used as a positive control and arbitrarily assigned a value of 100%. Cells treated with 1% DMSO were used as the negative control to define 0% response.
# Concentration effect curves were analysed using non-linear regression using the CDD Vault from Collaborative Drug Discovery (Burlingame, CA). […] The bottom and top of the curves were constrained to 0 and the maximum measured response respectively. From the fitted curves, the software derived C100% values (the concentration giving the same response as 200 μM G418) for each compound. The negative logarithm of C100% is reported as pC100% (Table 1). In addition to pC100% values, the maximum fold response relative to 200 μM G418 (Fold over Control) was also captured (Table 1). A pC100% categorisation of ‘-’ in Table 1 represents examples in which a pC100% response was not reached when assayed at a concentration of 100 μM. A pC100% categorisation of ‘*’ in Table 1 represents examples in which a pC100% response was not reached when assayed at a concentration of 30 μM.
smiles,measurement,value
"Cc1cc(C)c2c(N)nc(N[C@H]3CCN(C)C3)nc2n1 [Example 15, (S)-5,7-dimethyl-N^2-(1-methylpyrrolidin-3-yl)pyrido[2,3-d]pyrimidine-2,4-diamine]",Emax,100 to 3000%
same,EC (100% of 200 uM G418 response),1 to 10 µM
"Cc1cc(-c2ccccc2)nc2nc(NC3CCN(C)CC3)nc(N)c12 [Example 16, 5-methyl-N^2-(1-methylpiperidin-4-yl)-7-phenylpyrido[2,3-d]pyrimidine-2,4-diamine]",EC (100% of 200 uM G418 response),0.1 to 1 µM
"COc1ccc2c(N)nc(NC3CCN(C)CC3)nc2n1 [Example 17, 7-methoxy-N^2-(1-methylpiperidin-4-yl)pyrido[2,3-d]pyrimidine-2,4-diamine]",Emax,100 to 3000%
same,EC (100% of 200 uM G418 response),10 to 100 µM
"CN1CCC(Nc2nc(N)c3ccc(C(F)(F)F)nc3n2)CC1 [Example 18, N^2-(1-methylpiperidin-4-yl)-7-(trifluoromethyl)pyrido[2,3-d]pyrimidine-2,4-diamine]",Emax,100 to 3000%
same,EC (100% of 200 uM G418 response),10 to 100 µM
"CN1CCC(Nc2nc(N)c3cc(C(F)(F)F)cnc3n2)CC1 [Example 19, N^2-(1-methylpiperidin-4-yl)-6-(trifluoromethyl)pyrido[2,3-d]pyrimidine-2,4-diamine]",Emax,0 to 100%
same,EC (100% of 200 uM G418 response),> 100 µM
"CN1CCC(Nc2nc(N)c3cc(Br)cnc3n2)CC1 [Example 20, 6-bromo-N^2-(1-methylpiperidin-4-yl)pyrido[2,3-d]pyrimidine-2,4-diamine]",Emax,100 to 3000%
same,EC (100% of 200 uM G418 response),10 to 100 µM
"Cc1nc2nc(NC3CCN(C)CC3)nc(N)c2cc1Br [Example 21, 6-bromo-7-methyl-N-(1-methylpiperidin-4-yl)pyrido[2,3-d]pyrimidine-2,4-diamine]",Emax,100 to 3000%
same,EC (100% of 200 uM G418 response),1 to 10 µM
"Cc1nc2nc(NC3CCN(C)CC3)nc(N)c2c(C)c1Br [Example 22, 6-bromo-5,7-dimethyl-N^2-(1-methylpiperidin-4-yl)pyrido[2,3-d]pyrimidine-2,4-diamine]",Emax,100 to 3000%
same,EC (100% of 200 uM G418 response),1 to 10 µM
"CN1CCC(Nc2nc(N)c3ccc(Cl)nc3n2)CC1 [Example 23, 7-chloro-N^2-(1-methylpiperidin-4-yl)pyrido[2,3-d]pyrimidine-2,4-diamine]",Emax,100 to 3000%
same,EC (100% of 200 uM G418 response),10 to 100 µM
"COc1ccc(-c2ccc3c(N)nc(NC4CCN(C)CC4)nc3n2)cc1 [Example 24, 7-(4-methoxyphenyl)-N^2-(1-methylpiperidin-4-yl)pyrido[2,3-d]pyrimidine-2,4-diamine]",EC (100% of 200 uM G418 response),1 to 10 µM
"CN1CCC(Nc2nc(N)c3ccc(-c4cccnc4)nc3n2)CC1 [Example 25, N^2-(1-methylpiperidin-4-yl)-7-(pyridin-3-yl)pyrido[2,3-d]pyrimidine-2,4-diamine]",Emax,100 to 3000%
same,EC (100% of 200 uM G418 response),10 to 100 µM
"CN1CCC(Nc2nc(N)c3ccc(-c4cnn(C)c4)nc3n2)CC1 [Example 26, 7-(1-methyl-1H-pyrazol-4-yl)-N^2-(1-methylpiperidin-4-yl)pyrido[2,3-d]pyrimidine-2,4-diamine]",Emax,0 to 100%
same,EC (100% of 200 uM G418 response),> 100 µM
"CN1CCC(Nc2nc(N)c3ccc(-c4ccccc4)nc3n2)CC1 [Example 27, N^2-(1-methylpiperidin-4-yl)-7-phenylpyrido[2,3-d]pyrimidine-2,4-diamine]",Emax,100 to 3000%
same,EC (100% of 200 uM G418 response),1 to 10 µM
"CN1CCC(Nc2nc(N)c3cc(OC4COC4)cnc3n2)CC1 [Example 28, N^2-(1-methylpiperidin-4-yl)-6-(oxetan-3-yloxy)pyrido[2,3-d]pyrimidine-2,4-diamine]",Emax,0 to 100%
same,EC (100% of 200 uM G418 response),> 100 µM
"Cc1cc(C)c2c(N)nc(NCCCN3CC4(COC4)C3)nc2n1 [Example 29, N^2-(3-(2-oxa-6-azaspiro[3.3]heptan-6-yl)propyl)-5,7-dimethylpyrido[2,3-d]pyrimidine-2,4-diamine]",Emax,100 to 3000%
same,EC (100% of 200 uM G418 response),10 to 100 µM
"Cc1cc(C)c2c(N)nc(NCCN3CC4(COC4)C3)nc2n1 [Example 30, N^2-(2-(2-oxa-6-azaspiro[3.3]heptan-6-yl)ethyl)-5,7-dimethylpyrido[2,3-d]pyrimidine-2,4-diamine]",Emax,100 to 3000%
same,EC (100% of 200 uM G418 response),10 to 100 µM
"CN1CCC(Nc2nc(N)c3c(n2)nc(-c2ccccc2)c2ccccc23)CC1 [Example 31, N^3-(1-methylpiperidin-4-yl)-6-phenylpyrimido[4,5-c]isoquinoline-1,3-diamine]",Emax,100 to 3000%
same,EC (100% of 200 uM G418 response),1 to 10 µM
"CN1CCC(Nc2nc(N)c3ccc(Oc4ccccc4)nc3n2)CC1 [Example 32, N^2-(1-methylpiperidin-4-yl)-7-phenoxypyrido[2,3-d]pyrimidine-2,4-diamine]",Emax,100 to 3000%
same,EC (100% of 200 uM G418 response),10 to 100 µM
"CN1CCC(Nc2nc(N)c3ccc(OC4CCC4)nc3n2)CC1 [Example 33, 7-cyclobutoxy-N^2-(1-methylpiperidin-4-yl)pyrido[2,3-d]pyrimidine-2,4-diamine]",Emax,100 to 3000%
same,EC (100% of 200 uM G418 response),10 to 100 µM
"CNc1ccc2c(N)nc(NC3CCN(C)CC3)nc2n1 [Example 34, N^7-methyl-N2-(1-methylpiperidin-4-yl)pyrido[2,3-d]pyrimidine-2,4,7-triamine]",Emax,100 to 3000%
same,EC (100% of 200 uM G418 response),10 to 100 µM
"CN1CCC(Nc2nc(N)c3ccc(Nc4ccccc4)nc3n2)CC1 [Example 35, N^2-(1-methylpiperidin-4-yl)-N^7-phenylpyrido[2,3-d]pyrimidine-2,4,7-triamine]",Emax,0 to 100%
same,EC (100% of 200 uM G418 response),> 100 µM
"CN1CCC(Nc2nc(N)c3ccc(N(C)C)nc3n2)CC1 [Example 36, N^7,N^7-dimethyl-N^2-(1-methylpiperidin-4-yl)pyrido[2,3-d]pyrimidine-2,4,7-triamine]",Emax,100 to 3000%
same,EC (100% of 200 uM G418 response),10 to 100 µM
"Cc1cc(C)c2c(N)nc(NCCN3Cc4ccccc4C3)nc2n1 [Example 37, N^2-(2-(isoindolin-2-yl)ethyl)-5,7-dimethylpyrido[2,3-d]pyrimidine-2,4-diamine]",EC (100% of 200 uM G418 response),10 to 100 µM
"CC(C)Oc1ccc2c(N)nc(NC3CCN(C)CC3)nc2n1 [Example 38, 7-isopropoxy-N^2-(1-methylpiperidin-4-yl)pyrido[2,3-d]pyrimidine-2,4-diamine]",Emax,0 to 100%
same,EC (100% of 200 uM G418 response),> 100 µM
"CNc1nc(NC2CCN(C)CC2)nc2ncccc12 [Example 39, N^4-methyl-N^2-(1-methylpiperidin-4-yl)pyrido[2,3-d]pyrimidine-2,4-diamine]",Emax,100 to 3000%
same,EC (100% of 200 uM G418 response),10 to 100 µM
"CN1CCC(Nc2nc(N(C)C)c3cccnc3n2)CC1 [Example 40, N^4,N^4-dimethyl-N^2-(1-methylpiperidin-4-yl)pyrido[2,3-d]pyrimidine-2,4-diamine]",Emax,100 to 3000%
same,EC (100% of 200 uM G418 response),10 to 100 µM
"COc1ccc(CNc2ccc3c(N)nc(NC4CCN(C)CC4)nc3n2)c(OC)c1 [Example 41, N^7-(2,4-dimethoxybenzyl)-N2-(1-methylpiperidin-4-yl)pyrido[2,3-d]pyrimidine-2,4,7-triamine]",Emax,0 to 100%
same,EC (100% of 200 uM G418 response),> 100 µM
"CC#Cc1cnc2nc(NC3CCN(C)CC3)nc(N)c2c1 [Example 42, N^2-(1-methylpiperidin-4-yl)-6-(prop-1-yn-1-yl)pyrido[2,3-d]pyrimidine-2,4-diamine]",Emax,0 to 100%
same,EC (100% of 200 uM G418 response),> 100 µM
"CN1CCC(Nc2cc(N)c3cccnc3n2)CC1 [Example 43, N^2-(1-methylpiperidin-4-yl)-1,8-naphthyridine-2,4-diamine]",Emax,100 to 3000%
same,EC (100% of 200 uM G418 response),10 to 100 µM
"Cc1nc2nc(NCCCN3CCOCC3)nc(N)c2c2c1CCC2 [Example 46, 6-methyl-N^3-(3-morpholinopropyl)-8,9-dihydro-7H-cyclopenta[4,5]pyrido[2,3-d]pyrimidine-1,3-diamine]",EC (100% of 200 uM G418 response),0.1 to 1 µM
"Cc1cccc(-c2ccc3c(N)nc(NC4CCN(C)CC4)nc3n2)c1 [Example 49, N^2-(1-methylpiperidin-4-yl)-7-(m-tolyl)pyrido[2,3-d]pyrimidine-2,4-diamine]",EC (100% of 200 uM G418 response),1 to 10 µM
COc1ccccc1-c1ccc2c(N)nc(NC3CCN(C)CC3)nc2n1 [Example 50],EC (100% of 200 uM G418 response),1 to 10 µM
CN1CCC(Nc2nc(N)c3ccc(-c4ccc(C(N)=O)cc4)nc3n2)CC1 [Example 51],Emax,0 to 100%
same,EC (100% of 200 uM G418 response),> 100 µM

# Reference: patent US20260234144A1 (TAY THERAPEUTICS LIMITED, priority 2023, published 2026)
